Holding throughout (assay type): cell-based
For assay [1], the system named is HCT-116 MTAP(-/-) deficient cells. Briefly: Inhibition of proliferation of HCT-116 MTAP(-/-) deficient cells (Cell-Titer Glo). Conditions: 8 days. In outline:
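Cells in log-phase growth, RPMI-1640 with 10% FBS, seeded and left overnight at 37°C, 5% CO2. Compound tested at 0–10,000 nM (10 points, 3-fold, 0.1% DMSO) for 8 days at 37°C, 5% CO2. Viability read by CellTiter-Glo luminescence.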

Assay [2] concerns HCT-116 MTAP wild-type cells. As to the kind of experiment: Inhibition of proliferation of HCT-116 MTAP wild-type cells (Cell-Titer Glo). Conditions: 8 days. The method, boiled down: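 MTAP wild-type HCT-116 cells were seeded, cultured overnight and then exposed to compound from 10,000 nM down in a 10-point, 3-fold series (0.1% DMSO). Plates were incubated 8 days at 37°C, 5% CO2. Proliferation was read by Cell-Titer Glo viability luminescence.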

The test system of a further assay is U87MG MTAP(-/-) cells. As to the kind of experiment: Inhibition of proliferation of U87MG MTAP(-/-) cells (CellTiter-Glo). Conditions: cell proliferation, 6 days. The protocol:
Test 7: Assay for Inhibitory Activity of Compounds against U87MG MTAP(-/-) Cell Proliferation
Materials and Cells: The U87MG MTAP(-/-) cell line was purchased from ATCC (USA). Cell culture media, fetal bovine serum (FBS), and penicillin-streptomycin were purchased from Thermo Fisher Scientific (USA). 384-well plates were purchased from PerkinElmer (USA). The CellTiter-Glo assay kit was purchased from Promega (USA).
Cell Culture: U87MG MTAP(-/-) cells were cultured in a medium supplemented with 10% fetal bovine serum (FBS) and 1% penicillin-streptomycin at 37°C with 5% CO2. Only cells in the logarithmic growth phase were used for experiments.
Cell Proliferation Inhibition Assay: The antiproliferative activity of the compounds against U87MG MTAP(-/-) cells was assessed using the CellTiter-Glo assay kit. Cell suspensions were adjusted to the appropriate density and seeded into 384-well plates at a volume of 40 µL per well, then incubated overnight at 37°C with 5% CO2. Compounds (40 nL) were added to each well to achieve final concentrations ranging from 0 to 10,000 nM (starting concentration 10,000 nM, 3-fold serial dilutions, 10 dose points), with a final DMSO concentration of […]. The cell plates were incubated at 37°C with 5% CO2 for 6 days. Subsequently, 40 µL of CellTiter-Glo reagent was added to measure cell viability. Paclitaxel was used as a control compound.

Some results are limits rather than exact numbers.

In the case of `C[C@H]1OC[C@@H](N(C)C(=O)c2ccc3nc(N)c4cncn4c3c2)c2ccc(C(F)(F)F)cc21` (single isomer, unassigned) [Example 106], the IC50 in assay [1] (Homo sapiens, HCT-116, 192 h) came out at 3.5 nM; in assay [2] (Homo sapiens, HCT-116, 192 h), 145 nM; in the assay on U87MG MTAP(-/-) cells (Homo sapiens, U-87 MG, 144 h) it was 10 nM.
As to `Cc1cc2nc(N)c3cncn3c2cc1C(=O)N(C)[C@@H]1COc2cc(C(F)(F)F)ccc21` [Example 15, (S)-4-amino-N,7-dime thyl-N-(6-(trifluoromethyl)-2,3-dihydrobenzofuran-3-yl)imidazo[1 ,5-a]quinoxaline-8-car boxamide], the IC50 in assay [1] (Homo sapiens, HCT-116, 192 h) was 3.5 nM; in assay [2] (Homo sapiens, HCT-116, 192 h), 282 nM; in the assay on U87MG MTAP(-/-) cells (Homo sapiens, U-87 MG, 144 h), 19.8 nM.
For `CC1OC[C@@H](N(C)C(=O)c2ccc3nc(N)c4cncn4c3c2)c2ccc(-c3cnn(C)c3)cc21` (stereo partly drawn) [Example 22, 4-amino-N-methyl-N-((4S)-1-methyl-7-(1-methyl-1H-pyrazol-4-yl)isochroman-4-yl)i midazo[1,5-a]quinoxa line-8-carboxamide], the concentration for half-maximal inhibition (IC50) stood at 5.1 nM in assay [1] (Homo sapiens, HCT-116, 192 h); 1690 nM in assay [2] (Homo sapiens, HCT-116, 192 h); 81.2 nM in the assay with U87MG MTAP(-/-) cells (Homo sapiens, U-87 MG, 144 h).
The matching figures for `CN(C(=O)c1cc2c(cc1F)nc(N)c1cncn12)[C@@H]1COc2cc(-c3cnn(C(F)(F)F)c3)ccc21` [Example 33, (S)-4-amino-7-fluoro-N-methyl-N-(6-(1-(trifluoromethyl)-1H-pyrazol-4-yl)-2,3-dihydrobenzofuran-3-yl)imid azo[1,5-a]quinoxaline-8-carboxamide]: 15.1 nM, 2660 nM and 81.7 nM.
The like results for `C[C@H]1OC[C@@H](N(C)C(=O)c2cc3c(cn2)nc(N)c2cncn23)c2ccc(C(F)(F)F)nc21` [Example 35, 4-amino-N-methyl-N-((5S,8R)-8-methyl-2-(trifluoromethyl)-5,8-dihydro-6H-pyrano[3,4-b]pyridin-5-yl)imida zo[1,5-a]pyrido[3,4-e] pyrazine-8-carboxamide] were, in that order, 23.2 nM, 2230 nM and 34.8 nM.
In the case of `CN(C(=O)c1cc2c(cc1C(F)(F)F)nc(N)c1cncn12)[C@@H]1COc2cc(C(F)(F)F)ccc21` [Example 36, (S)-4-amino-N-methy 1-7-(trifluoromethyl)-N-(6-(trifluoromethyl) -2,3-dihydrobenzofuran-3-yl)imidazo[1,5-a] quinoxaline-8-carbox amide], the IC50 in assay [1] (Homo sapiens, HCT-116, 192 h) was determined as 36 nM; in assay [2] (Homo sapiens, HCT-116, 192 h), 5130 nM; in the assay with U87MG MTAP(-/-) cells (Homo sapiens, U-87 MG, 144 h) it was 343 nM.
For `CN(C(=O)c1cc2c(cc1F)nc(N)c1cncn12)[C@@H]1COc2cc(S(C)(=O)=O)ccc21` [Example 38, (S)-4-amino-7-fluoro-N-methyl-N-(6-(methylsulfonyl)-2,3-dihydrobenzofuran-3-yl)imi dazo[1,5-a]quinoxaline-8-carboxamide], the IC50 is 30 nM in assay [1] (Homo sapiens, HCT-116, 192 h); 4060 nM in assay [2] (Homo sapiens, HCT-116, 192 h); 443 nM in the assay on U87MG MTAP(-/-) cells (Homo sapiens, U-87 MG, 144 h).
Consider `Cc1ncc2c(N)nc3ccc(C(=O)N(C)[C@@H]4COc5cc(C(F)(F)F)ccc54)cc3n12` [Example 39, (S)-4-amino-N,1-dime thyl-N-(6-(trifluoromethyl)-2,3-dihydrobenzofuran-3-yl)imidazo[1 ,5-a]quinoxaline-8-carboxamide], for which the IC50 in assay [1] (Homo sapiens, HCT-116, 192 h) is 15.9 nM; in assay [2] (Homo sapiens, HCT-116, 192 h), 2040 nM; in the assay with U87MG MTAP(-/-) cells (Homo sapiens, U-87 MG, 144 h), 176 nM.
The matching figures for `Cc1ncc(-c2ccc3c(c2)OC[C@H]3N(C)C(=O)c2cc3c(cc2F)nc(N)c2cncn23)cn1` [Example 40, (S)-4-amino-7-fluoro-N-methyl-N-(6-(2-methylpyrimidin-5-yl)-2,3-dihydrobenzofuran-3-yl)imidazo[1,5-a]qu inoxaline-8-carboxamide]: 32.1 nM, 9200 nM and 153 nM.
As to `CN(C(=O)c1ccc2nc(N)c3cncn3c2c1)C1COc2cc(S(F)(F)(F)(F)F)ccc21` (stereo not drawn) [Example 45, 4-amino-N-methyl-N-(6-(pentafluoro-λ^6-sulfaneyl)-2,3-dihydrobenzofuran-3-yl)imidaz o[1,5-a]quinoxaline-8-carboxamide], the IC50 was 10.3 nM in assay [1] (Homo sapiens, HCT-116, 192 h); 947 nM in assay [2] (Homo sapiens, HCT-116, 192 h); 60.6 nM with U87MG MTAP(-/-) cells (Homo sapiens, U-87 MG, 144 h).
The like results for `CN(C(=O)c1ccc2nc(N)c3cncn3c2c1)[C@@H]1COc2cc(-c3cncc(C(F)(F)F)c3)ccc21` [Example 47, (S)-4-amino-N-methy 1-N-(6-(5-(trifluoromethyl)pyridin-3-yl)-2,3-dihydrobenzofuran-3-yl)imidazo[1,5-a]quin oxaline-8-carboxamide] were, in that order, 17.7 nM, 4100 nM and 475 nM.
For `CCN(C(=O)c1ccc2nc(N)c3cncn3c2c1)[C@@H]1COc2cc(C(F)(F)F)ccc21` [Example 55, (S)-4-amino-N-ethyl-N-(6-(trifluoromethyl) -2,3-dihydrobenzofuran-3-yl)imidazo[1,5-a] quinoxaline-8-carbox amide], the IC50 was 11.8 nM in assay [1] (Homo sapiens, HCT-116, 192 h); 1220 nM in assay [2] (Homo sapiens, HCT-116, 192 h); 74.9 nM with U87MG MTAP(-/-) cells (Homo sapiens, U-87 MG, 144 h).
In the case of `CN(C(=O)c1ccc2nc(N)c3cncn3c2c1)[C@@H]1COc2cc(OC(F)(F)F)ccc21` [Example 56, (S)-4-amino-N-methy 1-N-(6-(trifluoromethoxy)-2,3-dihydrobenzofuran-3-yl)imidazo[1,5-a]quinoxaline-8-car boxamide], the IC50 turned out to be 15.9 nM in assay [1] (Homo sapiens, HCT-116, 192 h); 1530 nM in assay [2] (Homo sapiens, HCT-116, 192 h); 108 nM with U87MG MTAP(-/-) cells (Homo sapiens, U-87 MG, 144 h).
On to `[2H]C([2H])([2H])N(C(=O)c1cc2c(cn1)nc(N)c1cncn12)[C@@H]1COc2cc(C(F)(F)F)ccc21` [Example 75, (S)-4-amino-N-(methyl-d3)-N-(6-(trifluoromethyl)-2,3-dihydrobenzofuran-3-yl)imidazo[1,5-a]pyrido[3,4-e]pyrazine-8-carb oxamide], for which the IC50 in assay [1] (Homo sapiens, HCT-116, 192 h) came to 7.3 nM; in assay [2] (Homo sapiens, HCT-116, 192 h), 1170 nM; in the assay on U87MG MTAP(-/-) cells (Homo sapiens, U-87 MG, 144 h), 72.1 nM.
Consider `CN(C(=O)c1ccc2nc(N)c3cncn3c2c1)[C@@H]1COc2cc(C(F)(F)F)ccc21` [Example 79, (S)-4-amino-N-methy 1-N-(6-(trifluoromethyl)-2,3-dihydrobenzofuran-3-yl)imidazo[1,5-a]quinoxaline-8-carbo xamide-3-d], for which the IC50 in assay [1] is 5.6 nM; in assay [2], 1300 nM; in the assay with U87MG MTAP(-/-) cells, 83.3 nM.
With `COc1ccc2c(c1)OC[C@H]2N(C)C(=O)c1cc2c(cc1F)nc(N)c1cncn12` [Example 80, (S)-4-amino-7-fluoro-N-(6-methoxy-2,3-dihydrobenzofuran-3-yl)-N-methylimidazo[1,5-a]quinoxaline-8-carboxamide], the IC50 came to 39.3 nM in assay [1] (Homo sapiens, HCT-116, 192 h); 9170 nM in assay [2] (Homo sapiens, HCT-116, 192 h); 376 nM in the assay with U87MG MTAP(-/-) cells (Homo sapiens, U-87 MG, 144 h).
In the case of `CN(C(=O)c1cc2c(cc1F)nc(N)c1cncn12)[C@@H]1COc2cc(-c3ccnn3C)ccc21` [Example 117, (S)-4-amino-7-fluoro-N-methyl-N-(6-(1-methyl-1H-pyrazol-5-yl) -2,3-dihydrobenzofuran-3-yl)imidazo[1,5-a] quinoxaline-8-carbox amide], the IC50 in assay [1] (Homo sapiens, HCT-116, 192 h) amounted to 6.6 nM; in assay [2] (Homo sapiens, HCT-116, 192 h), 617 nM; in the assay with U87MG MTAP(-/-) cells (Homo sapiens, U-87 MG, 144 h), 61.3 nM.
As for `Cc1cc(-c2ccc3c(c2)OC[C@H]3N(C)C(=O)c2cc3c(cc2F)nc(N)c2cncn23)on1` [Example 119, (S)-4-amino-7-fluoro-N-methyl-N-(6-(3-methylisoxazol-5-yl)-2,3-dihydrobenzofuran-3-yl)imidazo[1,5-a]qui noxaline-8-carboxamide], the IC50 in assay [1] (Homo sapiens, HCT-116, 192 h) came out at 13.5 nM; in assay [2] (Homo sapiens, HCT-116, 192 h), 1310 nM; in the assay with U87MG MTAP(-/-) cells (Homo sapiens, U-87 MG, 144 h), 101 nM.
Regarding `COC(=O)c1ccc2c(c1)OC[C@H]2N(C)C(=O)c1ccc2nc(N)c3cncn3c2c1` [Example 122, methyl (S)-3-(4-amino-N-methylimidazo[1,5-a]quinoxaline-8-carboxamido)-2,3-dihydrobenzofuran-6-carboxylate], the concentration for half-maximal inhibition (IC50) in assay [1] (Homo sapiens, HCT-116, 192 h) is 50.6 nM; in assay [2] (Homo sapiens, HCT-116, 192 h), over 10000 nM; with U87MG MTAP(-/-) cells (Homo sapiens, U-87 MG, 144 h) it was 777 nM.
For `CCN(C(=O)c1cc2c(cc1F)nc(N)c1cncn12)[C@@H]1COc2cc(C(F)(F)F)ccc21` [Example 124, (S)-4-amino-N-ethyl-7-fluoro-N-(6-(trifluor omethyl)-2,3-dihydrobenzofuran-3-yl)imid azo[1,5-a]quinoxaline-8-carboxamide], the IC50 in assay [1] (Homo sapiens, HCT-116, 192 h) stood at 6.5 nM; in assay [2] (Homo sapiens, HCT-116, 192 h) it was 634 nM; with U87MG MTAP(-/-) cells (Homo sapiens, U-87 MG, 144 h) it was 64.4 nM.
For “(S)-4-amino-7-fluoro-N-methyl-N-(6-(1-me thyl-1H-pyrazol-4-yl) -2,3-dihydrobenzofura n-3-yl)imidazo[1,5-a] quinoxaline-8-carbox amide [Example 34]”, the IC50 in assay [1] is 29.6 nM; in assay [2], 6570 nM; with U87MG MTAP(-/-) cells, 179 nM.

As a reminder, the IC50 is the concentration needed to halve the response being measured. A low value points to greater potency in that assay.

Source of the values: patent EP4775208A1, “USE OF PRMT5 INHIBITOR IN TREATMENT OF TUMORS OR CANCERS” (Apeiron Therapeutics (Hong Kong) Ltd., priority 2023, dated 2025).
